{"source": "paper PMC8617031", "about": "“Development of a BCL-xL and BCL-2 dual degrader with improved anti-leukemic activity,” (Nature Communications, 2021)", "key": {"[1]": {"system": "BCL-xL/PROTAC/VCB ternary complex (HiBit-BCL-xL, HaloTag-VHL)", "assay": "NanoBRET intracellular ternary complex formation in 293T cells, BCL-xL", "assay_type": "cell-based, human", "conditions": "NanoBRET, 293T cells, 6 h", "excerpt": "(§1) Plasmids HaloTag-VHL (Cat. No. CS1679C155) and CMV HiBit (Cat. No. CS1956B03) were purchased from Promega. HiBit-BCL-xL and HiBit-BCL-2 were constructed previously. The two mutants (HiBit-BCL-xL-K157-only and HiBit-BCL-xL-K-ko) were constructed through Gibson assembly method. The primer pair (5′-[…]-3′ and 5′-[…]c[…]-3′) and the template Flag-BCL-xL-K157-only or Flag-BCL-xL-K-ko (pDL2129)[2] were used to clone the BCL-xL-K157-only-containing and BCL-xL-K-ko-containing fragments, respectively. The primer pair (5′-[…]g[…]-3′ and 5′-[…]-3′) and pBit3.1-N (Cat. No. N2361, Promega) were used to clone the vector-containing fragment. The PCR fragments were assembled using NEBuilder® HiFi DNA Assembly Master Mix (Cat. No. E2621, NEB, Ipswich, MA, USA). DNA sequences in all these plasmids were authenticated by automatic sequencing. […] After 24 h, 2 × 10^4 transfected cells were seeded into white 96-well tissue culture plates in Gibco™ Opti-MEM™ I Reduced Serum Medium, No Phenol Red (Cat. No. 11-058-021, Fisher) containing 4% FBS with or without HaloTag NanoBRET 618 Ligand (Cat. No. PRN1662, Promega) and incubated overnight at 37 °C, 5% CO2. The following day, serial diluted compounds were added into the medium and plates were incubated at 37 °C, 5% CO2, for 6 h. After treatment, NanoBRET Nano-Glo Substrate (cat. no. N1662, Promega) was added into the medium, and the contents were mixed by shaking the plate for 30 s before measuring donor and acceptor signals on Biotek plate reader. Dual-filtered luminescence was collected with a 450/50 nm bandpass filter (donor, NanoBiT-BCL-XL protein or NanoBiT-BCL-2 protein) and a 610-nm longpass filter (acceptor, HaloTag NanoBRET ligand) using an integration time of 0.5 s. mBRET ratios were calculated following the NanoBRET™ Nano-Glo® Detection System (Cat. No. N1662, Promega)."}, "BCL-xL": {"biological_target": "T1, BCL-xL (Homo sapiens, UniProt Q07817)", "T1 construct": "endogenous in cells", "T1 sequence (Q07817 whole entry)": "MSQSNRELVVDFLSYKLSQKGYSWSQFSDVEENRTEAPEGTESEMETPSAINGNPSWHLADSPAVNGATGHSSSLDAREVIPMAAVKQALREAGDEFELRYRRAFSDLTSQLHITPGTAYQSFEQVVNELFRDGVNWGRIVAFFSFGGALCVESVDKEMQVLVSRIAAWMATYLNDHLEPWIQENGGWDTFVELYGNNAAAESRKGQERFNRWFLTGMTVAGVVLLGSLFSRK", "assay": "BCL-xL degradation by immunoblot in 293T cells", "assay_type": "cell-based", "conditions": "16 h; for normalized BCL-xL protein content: 293T, Supplementary Fig. 1b", "experimental": "(§2) The DC50 and Dmax were calculated using Prism based on the ImageJ-quantified western blots in Supplementary Fig. 4. c, d AlphaLISA assay to determine the formation of BCL-xL/PROTAC/VHL-ELOC-ELOB (VCB) (c) or BCL-2/PROTAC/VCB (d) ternary complex in a cell-free condition. Data represent the mean of a single experiment with 2 technical replicates. Similar results were obtained in one more independent experiment. e, f NanoBRET assays evaluating intracellular BCL-xL/PROTAC/VCB (e) or BCL-2/PROTAC/VCB (f) ternary complex formation. […] Data are expressed as mean ± s.e.m. of three biological replicates. Source data are provided as a Source data file.\n(§3) Representative immunoblots are shown in (a–d) and β-actin was used as a loading control in all immunoblot analyses. The normalized protein content in the immunoblots is presented as mean values ± s.e.m. (n = 3 biologically independent experiments) in the bar graph (bottom panel). e, f The formation of BCL-xL/PROTAC/VCB (e) and BCL-2/PROTAC/VCB (f) ternary complexes in a cell-free condition was determined by AlphaLISA assay. Data represent the mean of a single experiment with 2 technical replicates. […] Source data are provided as a Source data file.\n(§4) Cells were collected, washed once with ice-cold phosphate-buffered saline, pH 7.2 (PBS, cat. no. 20012027; Thermo Fisher Scientific) and lysed in RIPA lysis buffer (Cat. No. BP-115DG, Boston Bio Products, Ashland, MA, USA) supplemented with protease and phosphatase inhibitor cocktails (Cat. No. PPC1010, Sigma-Aldrich, St. Louis, MO, USA) through sonication. The samples were centrifuged at 14,000 r.p.m. for 5 min and the supernatants were transferred into a new tube. The protein concentration in the supernatants was determined using the Pierce BCA protein Assay kit (cat. no. 23225, Thermo Fisher Scientific). The protein concentration was normalized, and the samples were reduced in 4× Laemmli’s SDS-sample buffer (cat. no. BP-110R, Boston Bio Products) and denatured at 95 °C for 5 min. An equal amount of protein samples (20–40 μg per lane) were resolved using precast 4–20% Tris-glycine gels (Mini-PROTEAN TGX, cat. no. 456–1094, Bio-Rad), and resolved proteins were transferred onto 0.2-µm pore size polyvinylidene difluoride (PVDF) blotting membranes (cat. no. LC2002, Thermo Fisher Scientific) using mini trans-blot electrophoretic transfer cell (Bio-Rad). The membranes were blocked with non-fat dry milk (5% wt/vol) in 1× Tris-buffered saline-Tween-20 (TBST, cat. no. J77500, Affymetrix) for 1 h at room temperature, and were subsequently probed with primary antibodies at a predetermined optimal concentration in non-fat dry milk (5% wt/vol in TBST) overnight at 4 °C. The membranes were washed three times (5 min each) in TBST and then incubated with horse radish peroxidase (HRP)-conjugated secondary antibodies for 1 h at room temperature. Following sufficient washing with TBST, the membranes were exposed with chemiluminescent HRP substrate (cat. no. WBKLS0500, MilliporeSigma), and the signal was detected using the ChemiDoc MP Imaging System (Bio-Rad) and quantified using the ImageJ (v1.53a) software from NIH."}, "BCL-2": {"biological_target": "T2, BCL-2 (Homo sapiens, UniProt P10415)", "T2 construct": "endogenous in cells", "T2 sequence (P10415 whole entry)": "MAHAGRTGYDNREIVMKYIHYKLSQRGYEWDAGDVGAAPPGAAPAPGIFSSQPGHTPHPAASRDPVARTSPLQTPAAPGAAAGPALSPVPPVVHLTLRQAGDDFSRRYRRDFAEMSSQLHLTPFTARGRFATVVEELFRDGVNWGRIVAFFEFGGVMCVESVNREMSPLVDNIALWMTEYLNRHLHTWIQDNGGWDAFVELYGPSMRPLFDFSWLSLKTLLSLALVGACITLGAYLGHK", "assay": "BCL-2 degradation by immunoblot in 293T cells", "assay_type": "cell-based", "conditions": "293T, 16 h, Supplementary Fig. 1b", "experimental": "as §2, §3, §4"}, "[2]": {"system": "BCL-2/PROTAC/VCB ternary complex (HiBit-BCL-2, HaloTag-VHL)", "assay": "NanoBRET intracellular ternary complex formation in 293T cells, BCL-2", "assay_type": "cell-based, human", "conditions": "NanoBRET, 293T cells, 6 h", "excerpt": "as §1"}, "[3]": {"conditions": "XZ739 concentration 0.003 (unit not given), untreated = 100, 2 replicates"}}, "note": "Values joined by “and” are separate entries in the source; they are usually repeats but may differ in a detail not shown here. Identical values can stand only once.", "data": [{"molecule": "CN(CCOCCOCCOCCNc1cccc2c1C(=O)N(C1CCC(=O)NC1=O)C2=O)CC[C@H](CSc1ccccc1)Nc1ccc(S(=O)(=O)NC(=O)c2ccc(N3CCN(CC4=C(c5ccc(Cl)cc5)CCC(C)(C)C4)CC3)cc2)cc1S(=O)(=O)C(F)(F)F", "note": "(some centres unmarked) [XZ739, reference compound]", "values": [{"measurement": "intracellular ternary complex formation with BCL-xL (in words)", "setting": "[1]", "value": "formed cellular ternary complexes with both BCL-xL and BCL-2"}, {"measurement": "BCL-xL degradation (in words)", "setting": "BCL-xL; 293T cells", "value": "could degrade BCL-xL"}, {"measurement": "normalized BCL-xL protein content", "setting": "BCL-xL; [3]", "value": "88 and 95"}, {"measurement": "normalized BCL-xL protein content", "setting": "BCL-xL; concentration 0.01", "value": "85 and 86"}, {"measurement": "normalized BCL-xL protein content", "setting": "BCL-xL; concentration 0.03", "value": "76 and 80"}, {"measurement": "normalized BCL-xL protein content", "setting": "BCL-xL; concentration 0.1", "value": "67 and 65"}, {"measurement": "normalized BCL-xL protein content", "setting": "BCL-xL; concentration 0.3", "value": "32 and 40"}, {"measurement": "normalized BCL-xL protein content", "setting": "BCL-xL; concentration 1", "value": "32 and 31"}, {"measurement": "normalized BCL-xL protein content", "setting": "BCL-xL; concentration 3", "value": "22 and 19"}, {"measurement": "normalized BCL-2 protein content", "setting": "BCL-2; [3]", "value": "116 and 103"}, {"measurement": "normalized BCL-2 protein content", "setting": "BCL-2; concentration 0.01", "value": "119 and 99"}, {"measurement": "normalized BCL-2 protein content", "setting": "BCL-2; concentration 0.03", "value": "113 and 104"}, {"measurement": "normalized BCL-2 protein content", "setting": "BCL-2; concentration 0.1", "value": "114 and 109"}, {"measurement": "normalized BCL-2 protein content", "setting": "BCL-2; concentration 0.3", "value": "119 and 101"}, {"measurement": "normalized BCL-2 protein content", "setting": "BCL-2; concentration 1", "value": "102 and 95"}, {"measurement": "normalized BCL-2 protein content", "setting": "BCL-2; concentration 3", "value": "97 and 102"}, {"measurement": "intracellular ternary complex formation with BCL-2 (in words)", "setting": "[2]", "value": "formed cellular ternary complexes with both BCL-xL and BCL-2"}]}]}
